Patent publication US6638542B2, “Reducing appetite in mammals by administering procyanidin and hydroxycitric acid” (Nutricia N.V., priority 2001, dated 2003)

Assay: Appetite reducing effects of coadministered procyanidin and hydroxycitric acid: voluntary food intake, placebo-controlled cross-over study
Format: in vivo, male Wistar rats
Details: 155 mg hydroxycitric acid per kg rat alone, single intragastric bolus, vs placebo, paired student t, FIG. 2
Description: The appetite suppressive effects of a combination of procyanidin (pine bark extract containing 65 wt. % procyanidin) and hydroxycitric acid (Regulator™ ex HOB Ireland, Dublin, Ireland) was tested in male Wistar rats. In a placebo-controlled cross-over study, either 13 mg procyanidin per kg rat (A), 155 mg hydroxycitric acid per kg rat (B) or 13 mg procyanidin per kg rat and 155 mg hydroxycitric acid per kg rat (C) were administered as a single bolus intragastrically at 30 min before onset of the active (dark) period.
Subsequently, voluntary food intake was recorded continuously for 48 hours. Following this period, the experiment was repeated as part of the cross-over design (that is, rats which first received the procyanidins now received the placebo and vice versa).
Results are shown as absolute cumulative food intake after 1,2 and 4 hours (see FIG. 2). Statistical analysis (paired student t) was made of the data.

With `O=C(O)CC(O)(C(=O)O)C(O)C(=O)O` (centres unmarked) [hydroxycitric acid] the “absolute cumulative food intake after 1, 2 and 4 hours” value was “did not result in a significant decrease” and the “absolute cumulative food intake after 1, 2 and 4 hours” value (listed as HCA) was “did not show any significant appetite reducing effect”.
